pIC50: −log10 of the molar value. Where two headings read alike, the source gives them in different places.
Experiments:
[1] = biological target: angiotensin II AT1 receptor; experiment: Assay A: Angiotensin II binding activity, rat uterine membrane preparation, 125I-AII displacement
Description: Assay A: Antiotensin II Binding Activity
Compounds of the invention were tested for ability to bind to the smooth muscle angiotensin II receptor using a rat uterine membrane preparation. […] Rat uterine membranes were prepared from fresh tissue. All procedures were carried out at 4° C. Uteri were stripped of fat and homogenized in phosphate-buffered saline at pH 7.4 containing 5 mM EDTA. The homogenate was centrifuged at 1500×g for 20 min., and the supernatant was recentrifuged at 100,000×g for 60 min. The pellet was resuspended in buffer consisting of 2 mM EDTA and 50 mM Tris-HCl (pH 7.5) to a final protein concentration of 4 mg/ml. […] The reaction was initiated by the addition of membrane protein and the mixture was incubated at 25° C. for 60 min. The incubation was terminated with ice-cold 50 mM Tris-HCl (pH 7.5) and the mixture was filtered to separate membrane-bound labelled peptide from the free ligand. The incubation tube and filter were washed with ice-cold buffer. Filters were assayed for radioactivity in a Micromedic gamma counter. Nonspecific binding was defined as binding in the presence of 10 μM of unlabelled AII. Specific binding was calculated as total binding minus nonspecific binding. […] Binding data were analyzed by a nonlinear least-squares curve fitting program.

[2] = tested on: pressor response to AII; experiment: Assay C: In vivo intragastric pressor assay response for AII antagonists; design: species or system Sprague-Dawley rats; conditions: for inhibition in vivo at 30 mg/kg: read-out: Assay C Inhibition
[3] = Rattus norvegicus, po, in vivo pressor response, 3 mg/kg intragastrically
[4] = in vivo pressor response, 3 mg/kg intragastrically
[5] = Rattus norvegicus, intraduodenal, in vivo pressor response, 30 mg/kg intraduodenally
[6] = in vivo pressor response, 30 mg/kg intraduodenally

Compound | pIC50 [1] | inhibition in vivo at 3 mg/kg [2, 3] [%] | Assay C Duration [2, 4] [min] | also measured
CCCCc1cn(-c2cccn2CC)c(=O)n1Cc1ccc(-c2ccccc2-c2nnn[nH]2)nc1 [Compound 249] | 8.36 | 20 | >180 | 
CCCCc1cn(CCC2CC2)c(=O)n1Cc1ccc(-c2ccccc2-c2nnn[nH]2)nc1 [Compound 217] | 8.03 | 65 | >180 | 
CCCCc1cn(CCCC)c(=O)n1Cc1ccc(-c2cccnc2-c2nnn[nH]2)cc1 [Compound 238] | 8.77 | 15 | >180 | 
CCOC(=O)[C@@H]1CC2=CC(=O)CC[C@]2(C)C23O[C@@H]2C[C@@]2(C)[C@@H](CC[C@@]24CCC(=O)O4)[C@H]13 (stereo partly drawn) [Compound 10] | 8.31 |  |  | inhibition in vivo at 3 mg/kg ([2]; Rattus norvegicus, intraduodenal, in vivo pressor response, 3 mg/kg intraduodenally): 86%; inhibition in vivo at 30 mg/kg [2, 5]: 100%; Assay C Duration ([2]; in vivo pressor response, 3 mg/kg intraduodenally): 100 min; Assay C Duration [2, 6]: 240 min
CCCCn1cc(CCC(C)C)n(Cc2ccc(-c3ccccc3-c3nnn[nH]3)nc2)c1=O [Compound 200] | 7.70 | 45 | >180 | 
CCCCc1cn(-c2c(F)cccc2F)c(=O)n1Cc1ccc(-c2ccccc2-c2nnn[nH]2)nc1 [Compound 231] | 8.44 | 75 | >180 | 
CCCCc1nc(CCCC)n(Cc2ccc(-c3ncccc3-c3nnn[nH]3)cc2)n1 [Compound 256] | 8.39 | 30 | >180 | 
CCCCc1cn(CC(C)C)c(=O)n1Cc1ccc(-c2ccccc2-c2nnn[nH]2)nc1 [Compound 208] | 7.66 | 50 | >180 | 
CCCCn1nc(C(C)(F)F)nc1Cc1ccc(-c2ccccc2-c2nnn[nH]2)nc1 [Compound 177] | 7.59 | 15 | 180 | 
CCCCn1nc(C(C)(OC)OC)nc1Cc1ccc(-c2ccccc2-c2nnn[nH]2)nc1 [Compound 193] | 7.96 | 10 | 180 | 
CCCCc1cn(CCC2=CCCC2)c(=O)n1Cc1ccc(-c2ccccc2-c2nnn[nH]2)nc1 [Compound 223] | 7.85 | 20 | >180 | 
CCCCc1nc(C(=O)N(C)C(C)(C)C)n(Cc2ccc(-c3ccccc3-c3nnn[nH]3)nc2)n1 [Compound 267] | 7.60 | 25 | >180 | 
CCCCc1nc(C(=O)NC)nn1Cc1ccc(-c2ccccc2-c2nnn[nH]2)nc1 [Compound 268] | 6.28 | 0 |  | 
CCCCc1nc(CCCC)n(Cc2ccc(-c3ccccc3-c3nnn[nH]3)cn2)n1 [Compound 250] | 7.37 | 0 |  | 
CCCCc1nc(CCCC)n(Cc2ccc(-n3ccc(-c4nnn[nH]4)c3)cc2)n1 [Compound 153] | 7.89 | 25 | >180 | 
CCCCc1cn(CCCC)c(=O)n1Cc1ccc(-c2cnccc2-c2nnn[nH]2)cc1 [Compound 236] | 8.31 | 70 | >180 | 
CCCCc1cn(-c2ccccc2C(C)C)c(=O)n1Cc1ccc(-c2ccccc2-c2nnn[nH]2)nc1 [Compound 230] | 8.59 | 25 | >180 | 
CCCCn1cc(CCC2CC2)n(Cc2ccc(-c3ccccc3-c3nnn[nH]3)nc2)c1=O [Compound 204] | 7.80 | 75 | >180 | 
CCCCn1nc(C(OC)OC)nc1Cc1ccc(-c2ccccc2-c2nnn[nH]2)nc1 [Compound 186] | 7.42 | 25 | 18 | 
CCCCc1cn(CCCC)c(=O)n1Cc1ccc(-c2ccccc2-c2nnn[nH]2)cn1 [Compound 234] | 8.30 | 20 |  | 

Compound | pIC50 [1] | inhibition in vivo at 3 mg/kg [2, 3] [%] | Assay C Duration [2, 4] [min] | also measured
CCCCn1nc(C(F)(F)CCC)nc1Cc1ccc(-c2ccccc2-c2nnn[nH]2)nc1 [Compound 181] | 7.68 | 20 | 180 | 
CCCCc1nc2c(O)nnc(CCC)c2n1Cc1ccc(-c2ccccc2-c2nnn[nH]2)cc1 [Compound 125] |  | 35 | >240 | 
CCCCc1cn(C(C)(C)C)c(=O)n1Cc1ccc(-c2ccccc2-c2nnn[nH]2)nc1 [Compound 212] | 7.64 | 15 | 180 | 
CCCn1nc(C(F)(F)CCC)nc1Cc1ccc(-c2ccccc2-c2nnn[nH]2)nc1 [Compound 180] | 7.70 | 25 | 180 | 
CCCCc1nc(-c2ccccc2)n(Cc2ccc(-c3ccccc3-c3nnn[nH]3)nc2)n1 [Compound 271] | 7.85 | 20 |  | 
CCCCc1cn(CCc2cccs2)c(=O)n1Cc1ccc(-c2ccccc2-c2nnn[nH]2)nc1 [Compound 220] | 8.15 | 75 | 120 | 
CCCCn1nc(C(O)CCC)nc1Cc1ccc(-c2ccccc2-c2nnn[nH]2)nc1 (stereo not drawn) [Compound 170] | 7.59 | 40 | >180 | 
COC(=O)[C@@H]1CC2=CC(=O)CC[C@]2(C)C23O[C@@H]2C[C@@]2(C)[C@@H](CC[C@@]2(O)CCC(=O)O)[C@H]13.[K+] (stereo partly drawn) [Compound 5] | 6.70 |  |  | inhibition in vivo at 30 mg/kg ([2]; Rattus norvegicus, intraduodenal): 38%; Assay C Duration [2, 6]: 20 to 30 min
CCCCc1cn(-c2ccccc2OC)c(=O)n1Cc1ccc(-c2ccccc2-c2nnn[nH]2)nc1 [Compound 229] | 7.72 | 40 | >180 | 
CCCCn1nc(C(=O)CCC)nc1Cc1ccc(-c2ccccc2-c2nnn[nH]2)nc1 [Compound 171] | 7.55 | 0 | 0 | 
CCCCn1nc(CCc2ccccc2)nc1Cc1ccc(-c2ccccc2-c2nnn[nH]2)nc1 [Compound 162] | 6.42 |  |  | 
CCCCc1cn(CCC2CCCC2)c(=O)n1Cc1ccc(-c2ccccc2-c2nnn[nH]2)nc1 [Compound 222] | 8.30 |  |  | 
CCCCc1cn(-c2ccccc2C)c(=O)n1Cc1ccc(-c2ccccc2-c2nnn[nH]2)nc1 [Compound 228] | 8.35 | 80 | >180 | 
CCCCc1nn(CC(=O)c2ccccc2)c(=O)n1Cc1ccc(-c2ccccc2-c2nn[nH]n2)cc1 [Compound 93] | 6.32 |  |  | 
CCCCn1nc(C(OCC)OCC)nc1Cc1ccc(-c2ccccc2-c2nnn[nH]2)nc1 [Compound 187] | 6.11 |  |  | 
CCCCc1nc(CCCC)n(Cc2ccc(-c3ccccc3-c3nnn[nH]3)nc2)n1 [Compound 252] | 7.89 |  |  | 
CCCCc1nc(CCCC)n(Cc2ccc(-c3cccnc3-c3nnn[nH]3)cc2)n1 [Compound 253] | 8.59 |  |  | 
C[C@]12CCC(=O)C=C1C1CC1[C@H]1[C@@H]3CC[C@@]4(CCC(=O)O4)[C@@]3(C)CC3O[C@]312 (stereo partly drawn) [Compound 9] | 6.15 |  |  | inhibition in vivo at 30 mg/kg [2, 5]: 80%; inhibition in vivo at 100 mg/kg ([2]; Rattus norvegicus, intraduodenal, in vivo pressor response, 100 mg/kg intraduodenally): 100%; Assay C Duration [2, 6]: 75 min; Assay C Duration ([2]; in vivo pressor response, 100 mg/kg intraduodenally): 130 min
CCCCc1nc(C)n(Cc2ccc(-c3ccccc3-c3nnn[nH]3)cc2)n1 [Compound 44] | 7.80 |  |  | 

— patent US20040102423A1, “Spironolactone and angiotensin II antagonist combination therapy for treatment of congestive heart failure” (G.D. Searle & Co., priority 1995, published 2004)
